From ChEMBL document CHEMBL1201862, “PubChem BioAssay data set” (2004)
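Following 48 hours of exposure in 96-well plates, responses at five concentrations were used to interpolate endpoints linearly. Abbreviation: GI50, concentration required for 50% inhibition of growth.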 The source made the active and inactive calls. Rule as the data show it: active = GI50 up to about 1.1 µM and inactive = higher.

Columns and labels:
Assay in all cases: NCI-60 cell line screen, 48 h
A498 = system: A498
CAKI-1 = system: CAKI-1
COLO 205 = system: COLO 205
HCC 2998 = system: HCC 2998
IGROV-1 = system: IGROV-1
K562 = system: K562
MCF7 = system: MCF7
Malme-3M = system: Malme-3M
OVCAR-5 = system: OVCAR-5
RXF 393 = system: RXF 393
SK-MEL-5 = system: SK-MEL-5
SR = system: SR
UO-31 = system: UO-31
HCT-15 = system: HCT-15
HL-60 = system: HL-60
MDA-MB-435 = system: MDA-MB-435
NCI-H460 = system: NCI-H460
T47D = system: T47D
OVCAR-4 = system: OVCAR-4
MDA-MB-231 = system: MDA-MB-231

Row | SMILES | GI50 (A498) | GI50 (CAKI-1) | GI50 (COLO 205) | GI50 (HCC 2998) | GI50 (IGROV-1) | GI50 (K562) | GI50 (MCF7) | GI50 (Malme-3M) | GI50 (OVCAR-5) | GI50 (RXF 393) | GI50 (SK-MEL-5) | GI50 (SR) | GI50 (UO-31) | GI50 (HCT-15) [µM] | GI50 (HL-60) | GI50 (MDA-MB-435) | GI50 (NCI-H460) | GI50 (T47D) | GI50 (OVCAR-4) | GI50 (MDA-MB-231)
1 | COc1cc([C@@H]2c3cc4c(c(O)c3C[C@H]3COC(=O)[C@@H]32)OCO4)cc(OC)c1O | < 0.02 µM (active) | < 0.02 µM (active) | 0.0281 µM (active) | 0.0237 µM (active) | 0.0277 µM (active) | 0.0243 µM (active) | 0.0377 µM (active) | 0.0266 µM (active) | 29.2 µM (inactive) | 0.233 µM (active) | < 0.02 µM (active) | 0.00307 µM (active) | < 0.02 µM (active) |  |  |  |  |  |  | 
2 | O=C1[C@H](O)[C@@H]2CCC[C@@]23CCCN13 | > 100 µM (inactive) | > 100 µM (inactive) | > 100 µM (inactive) | > 100 µM (inactive) | > 100 µM (inactive) | > 100 µM (inactive) | > 100 µM (inactive) |  | > 100 µM (inactive) | > 100 µM (inactive) | > 100 µM (inactive) | > 100 µM (inactive) | > 100 µM (inactive) | > 100 | > 100 µM (inactive) | > 100 µM (inactive) | > 100 µM (inactive) | > 100 µM (inactive) |  | 
3 | CN(N=O)C(=O)NC(CCCCNC(=O)OCc1ccccc1)C(=O)OCc1ccccc1 (stereo not drawn) | 55.5 µM (inactive) | 21.4 µM (inactive) | 23.7 µM (inactive) | 23.4 µM (inactive) | > 100 µM (inactive) | 48.8 µM (inactive) |  | 30.5 µM (inactive) | > 100 µM (inactive) | 33.7 µM (inactive) | 20.4 µM (inactive) | 14.9 µM (inactive) | 20.2 µM (inactive) | 36 | 25.2 µM (inactive) |  | 43.9 µM (inactive) |  | 71.1 µM (inactive) | 
4 | CCOc1ccc(/C=C2\NC(=S)N(/C=C3\C(=O)Oc4ccccc4C3=O)C2=O)cc1 |  | 23.9 µM (inactive) | 15.2 µM (inactive) | 32.1 µM (inactive) | 24.8 µM (inactive) |  | 17.8 µM (inactive) |  | 40.2 µM (inactive) | 3.84 µM (inactive) | 19.7 µM (inactive) |  | 24.1 µM (inactive) | 20.7 | 13.7 µM (inactive) | 28.8 µM (inactive) | 21.4 µM (inactive) |  | 28.1 µM (inactive) | 20.4 µM (inactive)
5 | Cn1c(=O)cc(NNc2ccc(Br)cc2)[nH]c1=O | 44.3 µM (inactive) |  | 2.58 µM (inactive) | 4.59 µM (inactive) | 11.1 µM (inactive) | 1.17 µM (inactive) | 10.4 µM (inactive) | 16.6 µM (inactive) | 13.4 µM (inactive) |  | 16.6 µM (inactive) | 3.43 µM (inactive) | 16.4 µM (inactive) | 6.71 | 2.99 µM (inactive) | 12.4 µM (inactive) | 4.26 µM (inactive) |  | 16 µM (inactive) | 14.6 µM (inactive)
6 | Oc1ccc(Br)cc1/C=N/c1ccc(/N=C/c2cc(Br)ccc2O)cc1 | > 100 µM (inactive) | > 100 µM (inactive) |  | > 100 µM (inactive) | > 100 µM (inactive) | > 100 µM (inactive) |  | > 100 µM (inactive) | > 100 µM (inactive) | > 100 µM (inactive) | > 100 µM (inactive) | > 100 µM (inactive) | > 100 µM (inactive) | > 100 | > 100 µM (inactive) |  | > 100 µM (inactive) |  | > 100 µM (inactive) | 
7 | CCCCc1c2c(nc3c1CCCC3O)CCCC2 (stereo not drawn) | > 100 µM (inactive) | > 100 µM (inactive) | > 100 µM (inactive) | > 100 µM (inactive) | > 100 µM (inactive) | 84.3 µM (inactive) | > 100 µM (inactive) | > 100 µM (inactive) | > 100 µM (inactive) | > 100 µM (inactive) | > 100 µM (inactive) | 5.11 µM (inactive) | > 100 µM (inactive) | > 100 | > 100 µM (inactive) | > 100 µM (inactive) | > 100 µM (inactive) |  | > 100 µM (inactive) | > 100 µM (inactive)
8 | Nc1ccc(/N=N/c2ccc(-c3ccc(/N=N/c4c(S(=O)(=O)O)cc5cc(S(=O)(=O)O)c(/N=N/c6ccc([N+](=O)[O-])cc6)c(N)c5c4O)cc3)cc2)c2cc(S(=O)(=O)O)ccc12 | > 100 µM (inactive) | > 100 µM (inactive) | > 100 µM (inactive) | > 100 µM (inactive) | > 100 µM (inactive) | > 100 µM (inactive) |  | > 100 µM (inactive) | > 100 µM (inactive) | > 100 µM (inactive) | > 100 µM (inactive) | > 100 µM (inactive) | > 100 µM (inactive) | > 100 | > 100 µM (inactive) |  | > 100 µM (inactive) |  | > 100 µM (inactive) | 
9 | Cc1ccc(N2CCc3c(C)c(C#N)c4nc5ccccc5n4c32)cc1 |  | 70.6 µM (inactive) | 90.6 µM (inactive) | > 100 µM (inactive) | 68.1 µM (inactive) |  | > 100 µM (inactive) | > 100 µM (inactive) | > 100 µM (inactive) | 32.1 µM (inactive) | > 100 µM (inactive) | 2.94 µM (inactive) | > 100 µM (inactive) | > 100 | > 100 µM (inactive) | 6.27 µM (inactive) | 99.1 µM (inactive) |  | > 100 µM (inactive) | 
10 | CC[C@@H]1CC[C@@H]2[C@H](CC[C@]3(C)[C@@H](OS(=O)(=O)c4ccc(C)cc4)CC[C@@H]23)[C@H]1COS(=O)(=O)c1ccc(C)cc1 | > 100 µM (inactive) |  |  | > 100 µM (inactive) | > 100 µM (inactive) | > 100 µM (inactive) | > 100 µM (inactive) | > 100 µM (inactive) |  | > 100 µM (inactive) | > 100 µM (inactive) | > 100 µM (inactive) | 51.4 µM (inactive) | > 100 | > 100 µM (inactive) | > 100 µM (inactive) | > 100 µM (inactive) |  | > 100 µM (inactive) | 
11 | CCOC(=O)C1=C(C)N(NC(=O)Nc2ccccc2)C(=O)C1=P(c1ccccc1)(c1ccccc1)c1ccccc1 | 29.5 µM (inactive) | 44.7 µM (inactive) | 25.3 µM (inactive) | 47.2 µM (inactive) | 29.6 µM (inactive) | 26.6 µM (inactive) |  | 36.2 µM (inactive) | > 100 µM (inactive) | 28 µM (inactive) | 33.8 µM (inactive) | 16.9 µM (inactive) | 74.6 µM (inactive) | 27.5 | 21.4 µM (inactive) |  | 38.6 µM (inactive) |  | 35.2 µM (inactive) | 
12 | COC(=O)c1c(C)cccc1C1CN=NC12Cc1cccc(C)c1C2=O (stereo not drawn) | 52 µM (inactive) | 37.7 µM (inactive) | 42.7 µM (inactive) | 38 µM (inactive) | 27.7 µM (inactive) | 25.9 µM (inactive) | 30.8 µM (inactive) | 29.1 µM (inactive) | 85.7 µM (inactive) | 30.5 µM (inactive) | 17.8 µM (inactive) | 26.7 µM (inactive) | 14.4 µM (inactive) | 34 | 11.7 µM (inactive) | 31.1 µM (inactive) | 12.6 µM (inactive) | 24 µM (inactive) | 23.9 µM (inactive) | 
13 | C/C=C/C[C@@H](C)[C@@H](O)[C@H]1C(=O)N[C@@H](CC)C(=O)N(C)CC(=O)N(C)[C@@H](CC(C)C)C(=O)N[C@@H](C(C)C)C(=O)N(C)[C@@H](CC(C)C)C(=O)N[C@@H](C)C(=O)N[C@H](C)C(=O)N(C)[C@@H](CC(C)C)C(=O)N(C)[C@@H](CC(C)C)C(=O)N(C)[C@@H](C(C)C)C(=O)N1C [CYCLOSPORINE] | 4.95 µM (inactive) | 6.98 µM (inactive) | 1.77 µM (inactive) | 2.15 µM (inactive) | 5.24 µM (inactive) | 3.99 µM (inactive) |  | 7.45 µM (inactive) | 6.93 µM (inactive) | 7.45 µM (inactive) | 3.78 µM (inactive) | 1.47 µM (inactive) | 3.26 µM (inactive) | 4.48 | 2.25 µM (inactive) |  | 3.87 µM (inactive) |  | 4.18 µM (inactive) | 
14 | CC(=O)OC12c3ccccc3C(c3ccccc31)C1C(=O)N(N=C(C)C)C(=O)C12 (stereo not drawn) |  | > 100 µM (inactive) | > 100 µM (inactive) | > 100 µM (inactive) | > 100 µM (inactive) | > 100 µM (inactive) | > 100 µM (inactive) | 63.2 µM (inactive) | > 100 µM (inactive) | > 100 µM (inactive) | > 100 µM (inactive) | > 100 µM (inactive) | > 100 µM (inactive) | > 100 | > 100 µM (inactive) |  |  | 70.8 µM (inactive) | > 100 µM (inactive) | > 100 µM (inactive)
15 | CC(C)(C)OC(=O)N1NC(c2ccccc2)CC1c1ccccc1 (stereo not drawn) | 27.8 µM (inactive) | 35 µM (inactive) | 20 µM (inactive) | 38.5 µM (inactive) |  | 31.7 µM (inactive) | 23.7 µM (inactive) |  | 28.4 µM (inactive) | 15.8 µM (inactive) | 19.6 µM (inactive) | 27.2 µM (inactive) | 15.7 µM (inactive) | 22.1 |  | 24.3 µM (inactive) | 30.4 µM (inactive) | 13.5 µM (inactive) |  | 
16 | O=C(/C=C/c1ccc(OCC(=O)N2CCN(c3ccccc3)CC2)cc1)c1ccccc1 | > 56.8 µM (inactive) | 93.3 µM (inactive) | 26.1 µM (inactive) | 45.4 µM (inactive) | 32.9 µM (inactive) | 3.18 µM (inactive) |  | 15 µM (inactive) | 48.8 µM (inactive) | 7.85 µM (inactive) | 7.57 µM (inactive) | 2.72 µM (inactive) | 15.2 µM (inactive) | 7.5 | 4.95 µM (inactive) |  | > 46.1 µM (inactive) |  | 14.3 µM (inactive) | 
